From ChEMBL document CHEMBL1121538, “Nucleosides. 116. 1-(beta-D-Xylofuranosyl)-5-fluorocytosines with a leaving group on the 3' position. Potential double-barreled masked precursors of anticancer nucleosides” (1980)
≈ marks a conversion by molar mass, not a printed value.

Assays:
Format in all cases: functional
Settings in all cases: read-out: ID50 (the source's name)
L5178Y [1] = assay: The compound was tested for anticancer activity against L5178Y ([…] resistant) cell lines of mouse leukemia
L5178Y [2] = assay: The compound was tested for anticancer activity against L5178Y (sensitive) cell lines of mouse leukemia
P815 [3] = assay: The compound was tested for anticancer activity against P815([…] resistant) cell lines of mouse leukemia
P815 [4] = assay: The compound was tested for anticancer activity against P815 (sensitive) cell lines of mouse leukemia

Compound | IC50 (L5178Y [1]) | IC50 (L5178Y [2]) | IC50 (P815 [3]) | IC50 (P815 [4])
Nc1nc(=O)n(C2OC(CO)C(Br)C2O)cc1F (stereo not drawn) | 2.6 µg/mL (≈ 8.02 µM) | 0.06 µg/mL (≈ 0.185 µM) | 5 µg/mL (≈ 15.4 µM) | 0.2 µg/mL (≈ 0.617 µM)
Nc1nc(=O)n(C2OC(CO)C(Cl)C2O)cc1F (stereo not drawn) | 71 µg/mL (≈ 254 µM) | 1 µg/mL (≈ 3.58 µM) | > 30 µg/mL | 0.7 µg/mL (≈ 2.5 µM)
Nc1ccn(C2OC(CO)C(Cl)C2O)c(=O)n1 (stereo not drawn) | > 100 µg/mL | 2 µg/mL (≈ 7.64 µM) | > 100 µg/mL | 0.8 µg/mL (≈ 3.06 µM)
Nc1ccn(C2OC(CO)C(I)C2O)c(=O)n1 (stereo not drawn) | > 100 µg/mL | 0.1 µg/mL (≈ 0.283 µM) | > 100 µg/mL | 0.3 µg/mL (≈ 0.85 µM)
Nc1ccn([C@@H]2O[C@H](CO)[C@H](F)[C@H]2O)c(=O)n1 | > 100 µg/mL | 37 µg/mL (≈ 151 µM) | > 100 µg/mL | 21 µg/mL (≈ 85.6 µM)
Cc1ccc(S(=O)(=O)O[C@@H]2[C@@H](O)[C@H](n3ccc(N)nc3=O)O[C@@H]2CO)cc1 | > 100 µg/mL | 0.08 µg/mL (≈ 0.201 µM) | > 30 µg/mL | 0.06 µg/mL (≈ 0.151 µM)
Nc1nc(=O)n(C2OC(CO)C(I)C2O)cc1F (stereo not drawn) | 10 µg/mL (≈ 26.9 µM) | 0.08 µg/mL (≈ 0.216 µM) | 8 µg/mL (≈ 21.6 µM) | 0.1 µg/mL (≈ 0.269 µM)
Nc1ccn([C@@H]2O[C@H](CO)[C@@H](O)[C@@H]2O)c(=O)n1 [CYTARABINE] | 79 µg/mL (≈ 325 µM) | 20 µg/mL (≈ 82.2 µM) | 40 µg/mL (≈ 164 µM) | 10 µg/mL (≈ 41.1 µM)

Now from value to molecule:

IC50 (L5178Y [1]) | IC50 (L5178Y [2]) | IC50 (P815 [3]) | IC50 (P815 [4]) | Compound
> 100 µg/mL | 0.03 µg/mL (≈ 0.098 µM) | > 100 µg/mL | 0.05 µg/mL (≈ 0.163 µM) | Nc1ccn(C2OC(CO)C(Br)C2O)c(=O)n1 (stereo not drawn)
> 100 µg/mL | 0.07 µg/mL (≈ 0.218 µM) | 22 µg/mL (≈ 68.5 µM) | 0.03 µg/mL (≈ 0.0934 µM) | CS(=O)(=O)O[C@@H]1[C@@H](O)[C@H](n2ccc(N)nc2=O)O[C@@H]1CO
8 µg/mL (≈ 19.3 µM) | 0.06 µg/mL (≈ 0.144 µM) | 3.9 µg/mL (≈ 9.39 µM) | 0.02 µg/mL (≈ 0.0481 µM) | Cc1ccc(S(=O)(=O)O[C@@H]2[C@@H](O)[C@H](n3cc(F)c(N)nc3=O)O[C@@H]2CO)cc1
5.3 µg/mL (≈ 15.6 µM) | 0.05 µg/mL (≈ 0.147 µM) | 6 µg/mL (≈ 17.7 µM) | 0.02 µg/mL (≈ 0.0589 µM) | CS(=O)(=O)O[C@@H]1[C@@H](O)[C@H](n2cc(F)c(N)nc2=O)O[C@@H]1CO
